Activity calls are given as the source filed them. The calls are words filed in the database; no cut-off is given here.
Assays:
[1] = Biodistribution in mouse Cloudman S91 tumor bearing DBA2 mouse intestine at 10 mg/kg, ip after 48 hrs; format: ADME, organism-based; design: dose 10 mg/kg, route intraperitoneal; conditions: read-out: Drug uptake
[2] = Biodistribution in mouse Cloudman S91 tumor bearing DBA2 mouse liver at 10 mg/kg, ip after 24 hrs; format: ADME, organism-based; design: dose 10 mg/kg, route intraperitoneal; conditions: read-out: Drug uptake
[3] = Biodistribution in mouse Cloudman S91 tumor bearing DBA2 mouse tumour at 10 mg/kg, ip after 2 hrs; format: ADME, organism-based, Neoplasm; design: dose 10 mg/kg, route intraperitoneal; conditions: read-out: Drug uptake
[4] = Biodistribution in mouse Cloudman S91 tumor bearing DBA2 mouse tumour at 10 mg/kg, ip after 6 hrs; format: ADME, organism-based, Neoplasm; design: dose 10 mg/kg, route intraperitoneal; conditions: read-out: Drug uptake
S91 [5] = assay: Antitumor activity against mouse Cloudman S91 cells allografted in DBA2 mouse at 10 mg/kg, ip; format: functional, organism-based; design: dose 10 mg/kg
S91 [6] = assay: Photodynamic efficacy against mouse Cloudman S91 cells allografted in DBA2 mouse assessed as disappearance of tumor at 10 mg/kg, ip followed by irradiated with 96 J cm'-2 laser light for 20 mins measured after 80 days; format: functional, organism-based; design: dose 10 mg/kg
S91 [7] = assay: Photodynamic efficacy against mouse Cloudman S91 cells allografted in DBA2 mouse assessed as tumor growth delay at 10 mg/kg, ip followed by irradiated with 96 J cm'-2 laser light for 20 mins relative to sulfonated bacteriochlorin; format: functional; conditions: route intraperitoneal
[8] = Biodistribution in mouse Cloudman S91 tumor bearing DBA2 mouse liver at 10 mg/kg, ip after 72 hrs; format: ADME, organism-based; design: dose 10 mg/kg, route intraperitoneal; conditions: read-out: Drug uptake
[9] = Biodistribution in mouse Cloudman S91 tumor bearing DBA2 mouse heart at 10 mg/kg, ip after 12 hrs; format: ADME, organism-based; design: dose 10 mg/kg, route intraperitoneal; conditions: read-out: Drug uptake
S91 [10] = assay: Photodynamic efficacy against mouse Cloudman S91 cells allografted in DBA2 mouse assessed as disappearance of tumor at 10 mg/kg, ip followed by irradiated with 96 J cm'-2 laser light for 20 mins; format: functional, organism-based; design: dose 10 mg/kg
[11] = Biodistribution in mouse Cloudman S91 tumor bearing DBA2 mouse kidneys at 10 mg/kg, ip after 72 hrs; format: ADME, organism-based; design: dose 10 mg/kg, route intraperitoneal; conditions: kidney, read-out: Drug uptake
S91 [12] = assay: Photodynamic efficacy against mouse Cloudman S91 cells allografted in DBA2 mouse assessed as necrotic scab formation in tumor at 10 mg/kg, ip followed by irradiated with 96 J cm'-2 laser light for 20 mins measured after 12 hrs; format: functional, organism-based; design: dose 10 mg/kg
[13] = Biodistribution in mouse Cloudman S91 tumor bearing DBA2 mouse blood at 10 mg/kg, ip after 12 hrs; format: ADME, organism-based; design: dose 10 mg/kg, route intraperitoneal; conditions: read-out: Drug uptake
[14] = Biodistribution in mouse Cloudman S91 tumor bearing DBA2 mouse liver at 10 mg/kg, ip after 6 hrs; format: ADME, organism-based; design: dose 10 mg/kg, route intraperitoneal; conditions: read-out: Drug uptake
[15] = Biodistribution in mouse Cloudman S91 tumor bearing DBA2 mouse skin at 10 mg/kg, ip after 72 hrs; format: ADME, organism-based, Zone of skin; design: dose 10 mg/kg, route intraperitoneal; conditions: read-out: Drug uptake
S91 [16] = assay: Photodynamic efficacy against mouse Cloudman S91 cells allografted in DBA2 mouse assessed as hyperaemia, oedema and progressive darkening of tumor at 10 mg/kg, ip followed by irradiated with 96 J cm'-2 laser light for 20 mins; format: functional, organism-based; design: dose 10 mg/kg
S91 [17] = assay: Photodynamic efficacy against mouse Cloudman S91 cells allografted in DBA2 mouse assessed as time of tumor growth delay at 10 mg/kg, ip followed by irradiated with 96 J cm'-2 laser light for 20 mins; format: functional; conditions: route intraperitoneal
[18] = Biodistribution in mouse Cloudman S91 tumor bearing DBA2 mouse lungs at 10 mg/kg, ip after 2 hrs; format: ADME, organism-based; design: dose 10 mg/kg, route intraperitoneal; conditions: lung, read-out: Drug uptake
[19] = Biodistribution in mouse Cloudman S91 tumor bearing DBA2 mouse tumour at 10 mg/kg, ip after 24 hrs; format: ADME, organism-based, Neoplasm; design: dose 10 mg/kg, route intraperitoneal; conditions: read-out: Drug uptake
[20] = Biodistribution in mouse Cloudman S91 tumor bearing DBA2 mouse heart at 10 mg/kg, ip after 72 hrs; format: ADME, organism-based; design: dose 10 mg/kg, route intraperitoneal; conditions: read-out: Drug uptake
Nucleic Acid = assay: Ratio of drug level in tumor to muscle in mouse Cloudman S91 tumor bearing DBA2 mouse at 10 mg/kg, ip; format: ADME, organism-based; design: dose 10 mg/kg, route intraperitoneal; conditions: in vivo
[21] = Biodistribution in mouse Cloudman S91 tumor bearing DBA2 mouse lungs at 10 mg/kg, ip after 12 hrs; format: ADME, organism-based; design: dose 10 mg/kg, route intraperitoneal; conditions: lung, read-out: Drug uptake
[22] = Biodistribution in mouse Cloudman S91 tumor bearing DBA2 mouse blood at 10 mg/kg, ip after 72 hrs; format: ADME, organism-based; design: dose 10 mg/kg, route intraperitoneal; conditions: read-out: Drug uptake
[23] = Biodistribution in mouse Cloudman S91 tumor bearing DBA2 mouse skin at 10 mg/kg, ip after 12 hrs; format: ADME, organism-based, Zone of skin; design: dose 10 mg/kg, route intraperitoneal; conditions: read-out: Drug uptake
[24] = Biodistribution in mouse Cloudman S91 tumor bearing DBA2 mouse heart at 10 mg/kg, ip after 48 hrs; format: ADME, organism-based; design: dose 10 mg/kg, route intraperitoneal; conditions: read-out: Drug uptake
[25] = Biodistribution in mouse Cloudman S91 tumor bearing DBA2 mouse kidneys at 10 mg/kg, ip after 24 hrs; format: ADME, organism-based; design: dose 10 mg/kg, route intraperitoneal; conditions: kidney, read-out: Drug uptake
[26] = Biodistribution in mouse Cloudman S91 tumor bearing DBA2 mouse muscle at 10 mg/kg, ip after 72 hrs; format: ADME, organism-based, Muscle tissue; design: dose 10 mg/kg, route intraperitoneal; conditions: read-out: Drug uptake
[27] = n-Octanol-water partition coefficient, log P of the compound; format: physicochemical
[28] = Biodistribution in mouse Cloudman S91 tumor bearing DBA2 mouse intestine at 10 mg/kg, ip after 24 hrs; format: ADME, organism-based; design: dose 10 mg/kg, route intraperitoneal; conditions: read-out: Drug uptake
[29] = Biodistribution in mouse Cloudman S91 tumor bearing DBA2 mouse tumour at 10 mg/kg, ip after 12 hrs; format: ADME, organism-based, Neoplasm; design: dose 10 mg/kg, route intraperitoneal; conditions: read-out: Drug uptake
[30] = Biodistribution in mouse Cloudman S91 tumor bearing DBA2 mouse heart at 10 mg/kg, ip after 24 hrs; format: ADME, organism-based; design: dose 10 mg/kg, route intraperitoneal; conditions: read-out: Drug uptake
[31] = Biodistribution in mouse Cloudman S91 tumor bearing DBA2 mouse spleen at 10 mg/kg, ip after 48 hrs; format: ADME, organism-based; design: dose 10 mg/kg, route intraperitoneal; conditions: read-out: Drug uptake
[32] = Biodistribution in mouse Cloudman S91 tumor bearing DBA2 mouse spleen at 10 mg/kg, ip after 6 hrs; format: ADME, organism-based; design: dose 10 mg/kg, route intraperitoneal; conditions: read-out: Drug uptake
Mus musculus = assay: Toxicity in mouse Cloudman S91 cells allografted DBA2 mouse assessed as skin damage with oedema and large scab formation at 10 mg/kg, ip followed by irradiated with 96 J cm'-2 laser light for 20 mins measured after 24 hrs; format: organism-based; design: dose 10 mg/kg, route intraperitoneal; conditions: in vivo
[33] = Biodistribution in mouse Cloudman S91 tumor bearing DBA2 mouse intestine at 10 mg/kg, ip after 12 hrs; format: ADME, organism-based; design: dose 10 mg/kg, route intraperitoneal; conditions: read-out: Drug uptake
S91 [34] = assay: Photodynamic efficacy against mouse Cloudman S91 cells allografted in DBA2 mouse assessed as necrotic and flat tumor at 10 mg/kg, ip followed by irradiated with 96 J cm'-2 laser light for 20 mins measured after 1 to 2 days; format: functional, organism-based; design: dose 10 mg/kg
[35] = Biodistribution in mouse Cloudman S91 tumor bearing DBA2 mouse muscle at 10 mg/kg, ip after 6 hrs; format: ADME, organism-based, Muscle tissue; design: dose 10 mg/kg, route intraperitoneal; conditions: read-out: Drug uptake

In the case of `CCNS(=O)(=O)c1ccc(Cl)c(-c2c3nc(c(-c4c(Cl)ccc(S(=O)(=O)NCC)c4Cl)c4ccc([nH]4)c(-c4c(Cl)ccc(S(=O)(=O)NCC)c4Cl)c4nc(c(-c5c(Cl)ccc(S(=O)(=O)NCC)c5Cl)c5ccc2[nH]5)CC4)CC3)c1Cl`, the concentration at 48 h [1] is reported as 900 ng/g, the concentration at 24 h [2] is reported as 2000 ng/g and the concentration at 2 h [3] is reported as 40 ng/g. The concentration at 6 h [4] was 160 ng/g, the Activity (S91 [5]) was “inactive” and the Activity (S91 [6]) was “inactive”. For the same molecule, the “fold change (FC)” value (S91 [7]) was 1.6, the concentration at 72 h [8] was 630 ng/g and the concentration at 12 h [9] was 200 ng/g. For the same molecule, the Activity (S91 [10]) was “Active”, the concentration at 72 h [11] was 200 ng/g and the Activity (S91 [12]) was “Active”. The concentration at 12 h [13] was 970 ng/g, the concentration at 6 h [14] was 4800 ng/g and the concentration at 72 h [15] was 19 ng/g. The Activity (S91 [16]) was “Active”, the Time (S91 [17]) was 44 days and the concentration at 2 h [18] was 200 ng/g. The concentration at 24 h [19] was 960 ng/g, the concentration at 72 h [20] was 200 ng/g and the Ratio (Nucleic Acid) was 7. The concentration at 12 h [21] was 300 ng/g, the concentration at 72 h [22] was 50 ng/g and the concentration at 12 h [23] was 180 ng/g. The concentration at 48 h [24] was 300 ng/g, the concentration at 24 h [25] was 500 ng/g and the concentration at 72 h [26] was 15 ng/g. It also gave a logP [27] of 1.83, a concentration at 24 h [28] of 750 ng/g and a concentration at 12 h [29] of 370 ng/g. The concentration at 24 h [30] was 800 ng/g, the concentration at 48 h [31] was 7300 ng/g and the concentration at 6 h [32] was 7000 ng/g. For the same molecule, the Activity (Mus musculus) was “Toxic”, the concentration at 12 h [33] was 1200 ng/g and the Activity (S91 [34]) was “Active”. The concentration at 6 h [35] was 50 ng/g.

Reference: ChEMBL document CHEMBL3217712, “Improved biodistribution, pharmacokinetics and photodynamic efficacy using a new photostable sulfonamide bacteriochlorin” (Medchemcomm, 2012)
